Measurements taken from US4906622A, “Optically active 2-chloro-12-(3-dimethylamino-2-methyl-propyl)-12H-dibenzo[d.g] [1,3,6] dioxazocines and a process for the preparation thereof” (Egis Gyogyszergyar, priority 1985, dated 1990).
Counter-ions that a name gives are not always drawn. Like-named read-outs stand apart in the source and are kept apart here.

How the values were obtained:
[1] = cited from earlier work
[2] = Acute toxicity on mice with peroral treatment; type: in vivo; settings: mouse, in vivo, po
Procedure: (§1) The hydrochloride of the racemic compound, the hydrochloride of the (-)-isomer [compound of Example 6; the salt has (+) rotation] and the hydrochloride of the (+)-isomer [compound of Example 7; the salt has (-) rotation] were tested for acute toxicity on mice with peroral treatment and for the inhibition of tremor induced by tremorine (the latter test characterizes the action against Parkinson's disease). In the latter case, the inhibition of tremor induced by tremorine [1,1'-(2-butynylene)-dipyrrolidine] administered intraperitoneally at a dosage of 20 mg/kg was tested on mice as described in Science, 124, 79 (1956). The compound to be examined was given perorally to a population of 50 mice one hour prior to the administration of tremorine, and the tremor developed was evaluated 45 minutes after the administration of tremorine.
(§2) To make sure that no contradiction exists between the data of Table I on the one hand, and the data of U.S. Pat. No. 4,208,410 on the other hand, the above tests was repeated using a population of 500 mice for each compound tested.

[3] = Local anaesthetic activity; type: in vivo; settings: primary tests / detailed tests
[4] = system: tremor induced by tremorine; assay: animal or person; type: in vivo, mice; settings: for ED50: Mus musculus; for ED50 / T.I. (therapeutic index) (Table 1) / T.I. (therapeutic index) (Table 2): po; for ED50 p.o., inhibition of tremor induced by tremorine (Table 1) / ED50 p.o., inhibition of tremor induced by tremorine (Table 2): hydrochloride
Procedure: as §1
Since a lower population of mice was used, less exact values of ED50 were obtained for the compounds tested. Thus, the therapeutic index calculated for the racemic compound is lower by a factor of about 2.4 than the value given in U.S. Pat. No. 4 4,208,410. However, the data obtained under identical test circumstances on a relatively low number of test animals can be compared with each other.
as §2

mice = assay: Acute toxicity on mice with peroral treatment; type: in vivo; settings: for LD50 p.o. (Table 1): Table 1, hydrochloride; for LD50 p.o. (Table 2): repeated test, population of 500 mice for each compound, hydrochloride
Procedure: as §1, §2

[5] = population of 500 mice, U.S. Pat. No. 4,208,410
[6] = p.o. one hour before tremorine 20 mg/kg i.p., evaluated 45 minutes after tremorine, population of 50 mice
[7] = repeated test, population of 500 mice for each compound

SMILES | local anaesthetic and antiparkinsonic activity ([1]; known from U.S. Pat. No. 4,208,410) | ED50, antiparkinsonic activity [1, 5] | therapeutic index [1, 5] | LD50 ([2]; Table 1, read-out: LD50 p.o. (Table 1)) | LD50 ([2]; repeated test, population of 500 mice for each compound, read-out: LD50 p.o. (Table 2)) | local anaesthetic activity [3] | ED50 ([4]; p.o. one hour before tremorine 20 mg/kg i.p., evaluated 45 minutes after tremorine, population of 50 mice, read-out: ED50 p.o., inhibition of tremor induced by tremorine (Table 1)) | ED50 ([4]; repeated test, population of 500 mice for each compound, read-out: ED50 p.o., inhibition of tremor induced by tremorine (Table 2)) | factor by which the therapeutic index is lower than the value given in U.S. Pat. No. 4,208,410 ([4]; mouse, in vivo) | T.I. (therapeutic index) (Table 1) ([4]; mouse, in vivo) | T.I. (therapeutic index) (Table 2) ([4]; mouse, in vivo) | LD50 p.o. (Table 1) (mice) | LD50 p.o. (Table 2) (mice) | ED50 p.o., inhibition of tremor induced by tremorine (Table 1) [4, 6] | ED50 p.o., inhibition of tremor induced by tremorine (Table 2) [4, 7]
CC(CN(C)C)CN1c2ccccc2OCOc2ccc(Cl)cc21 (racemic) [2-chloro-12-(3-dimethylamino-2-methylpropyl)-12H-dibenzo[d,g][1,3,6]-dioxazocine] | has local anaesthetic and antiparkinsonic activity | 11 mg/kg | 25 | – | – | – | – | – | – | – | – | – | – | – | –
CC(CN(C)C)CN1c2ccccc2OCOc2ccc(Cl)cc21 (racemic) [racemic, reference compound] | – | – | – | 270 mg/kg | 270 mg/kg | has local anaesthetic activity, detailed tests have not shown any therapeutically valuable effect | 25 mg/kg | 10.5 mg/kg | about 2.4 | 10.8 | 25.7 | – | – | – | –
CC(CN(C)C)CN1c2ccccc2OCOc2ccc(Cl)cc21 (single isomer, unassigned; (+)) [Example 6, (+)-2-chloro-12-(3-dimethylamino-2-methylpropyl)-12H-dibenzo[d,g][1,3,6]dioxazocine hydrochloride] | – | – | – | – | – | – | – | – | – | 72.7 | 168.4 | 160 mg/kg | 160 mg/kg | 2.2 mg/kg | 0.95 mg/kg
CC(CN(C)C)CN1c2ccccc2OCOc2ccc(Cl)cc21 (single isomer, unassigned; (-)) [Example 7, (-)-2-Chloro-12-(3-dimethylamino-2-methylpropyl)-12H-dibenzo[d,g][1,3,6]dioxazocine hydrochloride] | – | – | – | – | – | – | – | – | – | 65.7 | 160.8 | 460 mg/kg | 460 mg/kg | 7 mg/kg | 2.86 mg/kg
